# Where two headings read alike, the source gives them in different places.
# Tests used:
# HepG2 cells [1] = conditions: cited from earlier work
# rat primary hepatocytes [2] = experiment: MMP assay in rat primary hepatocytes; conditions: Rattus norvegicus, Hepatocyte
# [3] = test system: Caenorhabditis elegans strain PE255; experiment: In vivo C. elegans ATP status assay
# [4] = test system: HeLa cells expressing YFP-Parkin; experiment: Parkin translocation assay; type: cell-based, human
# rat primary hepatocytes [5] = test system: rat primary hepatocytes
# [6] = test system: p53 (p53-bla HCT-116 cells); experiment: p53 β-lactamase reporter gene assay; type: cell-based, human; conditions: Homo sapiens; 16 h incubation; mean±SD of three experiments
# [7] = test system: Nrf2/ARE (ARE-bla HepG2 cells); experiment: ARE β-lactamase reporter gene assay; type: cell-based, human; conditions: Homo sapiens, HepG2; 16 h incubation; mean±SD of three experiments; read-out: ARE (HepG2) EC50
# [8] = test system: Caenorhabditis elegans (Bristol N2); experiment: C. elegans larval development and growth assay
# HepG2 cells [9] = experiment: ROS-Glo hydrogen peroxide (ROS) assay; type: cell-based, human
# HepG2 cells [10] = experiment: Intracellular ATP content (cell viability) assay; type: cell-based, human; conditions: Homo sapiens, HepG2, 40 h
# [11] = test system: isolated rat liver mitochondria; experiment: Oxygen consumption, Clark-type oxygen electrode; type: biochemical; conditions: isolated rat liver mitochondria; for I-ADP, % of control (O2 consumption rate): glutamate/malate driven state 3 respiration; for I-sub, % of control (O2 consumption rate): glutamate/malate driven state 4 respiration; for II-ADP, % of control (O2 consumption rate): succinate-driven state 3 respiration; for II-sub, % of control (O2 consumption rate): succinate-driven state 4 respiration
# hNSC = experiment: MMP assay in human neural stem cells (hNSC); type: cell-based; conditions: Homo sapiens, Neural stem cell, 1 h, read-out: hNSC IC50 (MMP)
# HepG2 cells [12] = experiment: cells; conditions: Homo sapiens; for IC50: HepG2, 1 h
structure (smiles),measurement,setting,value
"N#CC(c1ccc(Cl)cc1)c1c(Cl)cc(-n2ncc(=O)[nH]c2=O)cc1Cl (stereo not shown) [Diclazuril, reference compound]",MMP assays efficacy (%) qHTS-HepG2,HepG2 cells [1],-108±7%
same,IC50,HepG2 cells [1]; read-out: MMP assays IC50 (µM) qHTS-HepG2,11.2 ± 2.79 µM
same,IC50,"rat primary hepatocytes [2]; 1 h, read-out: Rat hepatocytes IC50 (MMP)",11.5 µM
same,IC50,rat primary hepatocytes [2]; read-out: MMP assays IC50 (µM) Rat Hepatocytes,5.7 ± 1.94 µM
same,"LEC (lowest effect concentration), ATP assay",[3]; 24 h exposure,< 10 µM
same,minimal effective concentration,"[3]; Caenorhabditis elegans, read-out: LEC LUM: lowest effect concentration for luminescence, a measure of nematode ATP content",5 µM
same,Parkin recruitment,[4],Inactive
same,MMP assays efficacy (%) Rat Hepatocytes,rat primary hepatocytes [5],-114±26%
same,Rat hepatocytes (efficacy) (MMP),rat primary hepatocytes [5],11.5±5.18 ( −72.8±2.37 ) %
same,EC50,[6],27.9 ± 6.48 µM
same,EC50,[7],10.9 µM
same,"LEC (lowest effect concentration), larval growth assay",[8]; 48 h exposure,< 10 µM
same,minimal effective concentration,"[8]; Caenorhabditis elegans, read-out: LEC EXT: lowest effect concentration for extinction, a measure of nematode size",2.5 µM
same,ROS (HepG2) EC50,HepG2 cells [9],Inactive
same,IC50,"HepG2 cells [10]; read-out: ATP (HepG2, galactose) IC50",43.4 µM
same,IC50,"HepG2 cells [10]; read-out: ATP (HepG2, glucose) IC50",50.4 µM
same,"I-ADP, % of control (O2 consumption rate)",[11]; 0.16 µM,96 (22.7) % of control
same,"I-sub, % of control (O2 consumption rate)",[11]; 0.16 µM,174 (24.7) % of control
same,"II-ADP, % of control (O2 consumption rate)",[11]; 0.16 µM,99 (32.7) % of control
same,"II-sub, % of control (O2 consumption rate)",[11]; 0.16 µM,168 (35.8) % of control
same,"I-ADP, % of control (O2 consumption rate)",[11]; 0.8 µM,95 (41.4) % of control
same,"I-sub, % of control (O2 consumption rate)",[11]; 0.8 µM,290 (38.0) % of control
same,"II-ADP, % of control (O2 consumption rate)",[11]; 0.8 µM,88 (59.6) % of control
same,"II-sub, % of control (O2 consumption rate)",[11]; 0.8 µM,263 (54.9) % of control
same,"I-ADP, % of control (O2 consumption rate)",[11]; 4 µM,45 (41.9) % of control
same,"I-sub, % of control (O2 consumption rate)",[11]; 4 µM,115 (22.8) % of control
same,"II-ADP, % of control (O2 consumption rate)",[11]; 4 µM,55 (67.2) % of control
same,"II-sub, % of control (O2 consumption rate)",[11]; 4 µM,103 (35.2) % of control
same,"I-ADP, % of control (O2 consumption rate)",[11]; 20 µM,95 (41.4) % of control
same,"I-sub, % of control (O2 consumption rate)",[11]; 20 µM,124 (16.3) % of control
same,"II-ADP, % of control (O2 consumption rate)",[11]; 20 µM,101 (68.5) % of control
same,"II-sub, % of control (O2 consumption rate)",[11]; 20 µM,127 (26.6) % of control
same,"I-ADP, % of control (O2 consumption rate)",[11]; 100 µM,94 (41.1) % of control
same,"I-sub, % of control (O2 consumption rate)",[11]; 100 µM,115 (15.1) % of control
same,"II-ADP, % of control (O2 consumption rate)",[11]; 100 µM,101 (68.3) % of control
same,"II-sub, % of control (O2 consumption rate)",[11]; 100 µM,114 (23.8) % of control
same,IC50,hNSC,20.6 µM
same,IC50,HepG2 cells [12]; read-out: HepG2 IC50 Galactose (MMP),46.3 µM
same,IC50,HepG2 cells [12]; read-out: HepG2 IC50 Glucose (MMP),38.3 µM
same,Emax,"HepG2 cells [12]; HepG2, read-out: MMP assays efficacy (%) HepG2",99%

# From publication PMC6112376, “Comprehensive Analyses and Prioritization of Tox21 10K Chemicals Affecting Mitochondrial Function by in-Depth Mechanistic Studies” (Environmental Health Perspectives, 2018)
